One may read the IC50 as the midpoint of a concentration-inhibition curve. For orientation: half-life means the time in which the quantity being followed falls by half.

This is an account of results in ChEMBL document CHEMBL5331135, “Design, Synthesis, and Evaluation of Glucose Transporter Inhibitor-SN38 Conjugates for Targeting Colorectal Cancer” (J Med Chem, 2023).

Series [1] relates to COLO 205. Nature of the series: Cytotoxicity against human COLO 205 cells incubated for 48 hrs by SRB assay. The note with it: COLO 205, 48 h. Format: functional, cell-based.
Series [2] deals with HCT-116. Nature of the series: Cytotoxicity against human HCT-116 cells incubated for 48 hrs by SRB assay. The note with it: HCT-116, 48 h. Format: functional, cell-based. On the technique in general: In SRB staining, fixed cells bind dye roughly in proportion to their protein.
Series [3] relates to HT-29. Nature of the series: Cytotoxicity against human HT-29 cells incubated for 48 hrs by SRB assay. The series is classed as functional, cell-based. The note with it: HT-29, 48 h.
A short description of series [4]: Stability in human plasma assessed as formation of carboxylate product measured for 72 hrs by RP-HPLC analysis. Format: ADME, cell-free.
Series [5] can be described thus: Drug uptake in human COLO 205 cells assessed as drug internalization in presence of 4.5 g/L glucose by fluorescence based assay. The series is classed as ADME, cell-based.
Series [6] in a line: Toxicity in AOM/DSS-induced orthotopic CRC BALB/c mouse model assessed as lesions in kidney at 20 to 40 mg/kg, iv administered once every 2 days for 2 weeks by H&E staining based analysis. Format: organism-based. The note with it: in vivo, 336 h, dose 20-40 mg/kg.
Series [7] in a line: Toxicity in AOM/DSS-induced orthotopic CRC BALB/c mouse model assessed as lesions in stomach at 20 to 40 mg/kg, iv administered once every 2 days for 2 weeks by H&E staining based analysis. The series is classed as organism-based. As to conditions: in vivo, 336 h, dose 20-40 mg/kg; call rule not given here.
Series [8] is described as follows: Stability in human plasma assessed as half life by RP-HPLC analysis. Format: ADME, cell-free.
Series [9] is described as follows: Toxicity in AOM/DSS-induced orthotopic CRC BALB/c mouse model assessed as lesions in lung at 20 to 40 mg/kg, iv administered once every 2 days for 2 weeks by H&E staining based analysis. The note with it: in vivo, 336 h, dose 20-40 mg/kg. Format: organism-based.
A short description of series [10]: Antitumor activity against AOM/DSS-induced orthotopic CRC BALB/c mouse model assessed as tumor growth inhibition at 20 mg/kg, iv administered once every 2 days for 2 weeks in presence of SGLT inhibitor by dissecting microscopic analysis relative to control. The series is classed as functional, Colorectal cancer cell. On the set-up: scale not given: the % may be the effect or the level left.

The nature of series [11]: Toxicity in AOM/DSS-induced orthotopic CRC BALB/c mouse model assessed as body weight loss at 40 mg/kg, iv administered once every 2 days for 2 weeks. Format: organism-based. As to conditions: in vivo, 336 h.
A short description of series [12]: Toxicity in AOM/DSS-induced orthotopic CRC BALB/c mouse model assessed as lesions in heart at 20 to 40 mg/kg, iv administered once every 2 days for 2 weeks by H&E staining based analysis. The series is classed as organism-based. As to conditions: in vivo, 336 h, dose 20-40 mg/kg.
Series [13] in a line: Toxicity in AOM/DSS-induced orthotopic CRC BALB/c mouse model assessed as lesions in liver at 20 to 40 mg/kg, iv administered once every 2 days for 2 weeks by H&E staining based analysis. The note with it: in vivo, 336 h, dose 20-40 mg/kg. The series is classed as organism-based.
Series [14] can be described thus: Antitumor activity against AOM/DSS-induced orthotopic CRC BALB/c mouse model assessed as tumor growth inhibition at 40 mg/kg, iv administered once every 2 days for 2 weeks in presence of SGLT inhibitor by dissecting microscopic analysis relative to control. Format: functional, Colorectal cancer cell. The arrangement: scale not given: the % may be the effect or the level left.

The nature of series [15]: Toxicity in AOM/DSS-induced orthotopic CRC BALB/c mouse model assessed as lesions in spleen at 20 to 40 mg/kg, iv administered once every 2 days for 2 weeks by H&E staining based analysis. The series is classed as organism-based. The note with it: in vivo, 336 h, dose 20-40 mg/kg.

The structures appear in SMILES notation. Where only a bound is given, the exact number is not on record here.

In the case of `O=C(CCc1ccc(O)cc1)c1c(O)cc(O)cc1O[C@@H]1O[C@H](CO)[C@@H](O)[C@H](O)[C@H]1O` [PHLORIZIN], the IC50 in series [1], in series [2] and in series [3] was > 100 µM in each case.

Regarding `CCc1c2c(nc3ccc(OCc4ccc(NC(=O)[C@H](CCCNC(N)=O)NC(=O)[C@@H](NC(=O)CCCCN5C(=O)CC(SCCOCCOCCOc6cc(O)c(C(=O)CCc7ccc(O)cc7)c(O[C@@H]7O[C@H](CO)[C@@H](O)[C@H](O)[C@H]7O)c6)C5=O)C(C)C)cc4)cc13)-c1cc3c(c(=O)n1C2)COC(=O)[C@]3(O)CC` (some centres not stated), the Stability result in [4] is reported as “Stable”. Further, in [5], the Drug uptake result is given as “Active”. For the same molecule, the Activity result is “Non-Toxic” in series [6]; “Non-Toxic” in series [7]; “Non-Toxic” in series [9]; 45% in [10]; “Non-Toxic” in [11]; “Non-Toxic” in series [12]. In addition, the Activity entry was “Non-Toxic” in series [13], 55% in series [14] and “Non-Toxic” in series [15]. In addition, the IC50 in [1] is 15.4 µM; in series [2], 3.25 µM; in series [3], > 100 µM. Also, the half-life in series [8] is 2160 min.

As to `CCc1c2c(nc3ccc(OC(=O)OCCSSCCOCCOCCOc4cc(O)c(C(=O)CCc5ccc(O)cc5)c(O[C@@H]5O[C@H](CO)[C@@H](O)[C@H](O)[C@H]5O)c4)cc13)-c1cc3c(c(=O)n1C2)COC(=O)[C@]3(O)CC`, the IC50 in series [1] is 0.64 µM; in series [2], 0.0423 µM; in [3] it was 0.51 µM. Moreover, the half-life in series [8] was determined as 20 min.
